Test results as given in article PMC12481576, “Barbituric Acid Derivatives as Covalent Inhibitors of Leishmania braziliensis Dihydroorotate Dehydrogenase” (Journal of Medicinal Chemistry, 2025).
Like-named read-outs stand apart in the source and are kept apart here.

Experiments:
HsDHODH = target: T1, HsDHODH (Homo sapiens, UniProt Q02127); experiment: Selectivity assay: HsDHODH single-dose inhibition (DCIP reduction); assay type: biochemical
T1 construct: made in house
Method: […]. This finding highlights the potential of barbituric acid derivatives as selective inhibitors of LbDHODH.
Human DHODH expression and purification were conducted following a protocol previously established in our laboratory. The purification was carried out by affinity chromatography on a Ni-NTA Agarose column (Qiagen[…] Cat. No. 30210). […] The reaction was performed in triplicate, initiated by adding 195 μL of reaction buffer to 5 μL of HsDHODH protein solution for a final concentration of 20 nM enzyme. As a blank, 195 μL of reaction buffer was added to 5 μL of Buffer A. The reaction was monitored at 610 nm every 3 s over 60 s. As a control, 5 μL of enzyme was added to 195 μL of reaction medium without compound. Enzymatic velocity was calculated, and the percentage of relative enzymatic activity was determined relative to the control.

[1] = test system: Leishmania braziliensis promastigotes; experiment: Leishmanicidal activity, promastigote growth (SYBR Green, 72 h); assay type: cell-based, Leishmania (V.) braziliensis (MHOM/BR/1975/M2904); conditions: Leishmania braziliensis, L. braziliensis promastigotes, max 200 μM
Method: The cultures were adjusted to 4 × 10^6 parasites per mL, and 50 μL of each culture was added on a test plate with 384 wells (Corning, #CLS3658), along with the controls and compounds to be tested. Previously diluted compounds in DMSO were added to plates in decreasing concentrations, with a maximum concentration of 200 μM. Parasites were exposed to a final concentration of DMSO in various dilutes (final = 0.5%), and the culture medium was used as the control for the experiment. […] After adding the lysis buffer, the plates were incubated in the dark for 2 h with gentle shaking. The readings were done using a SpectraMax M3 reader (excitation at 485 nm and emission at 535 nm).

[2] = Cell viability / cytotoxicity assay (PrestoBlue, 72 h); assay type: cell-based; conditions: human
Method: THP-1 cells (American Type Cell Collection, #TIB-202) were acquired in 2019 and stored frozen in liquid nitrogen. The cells were then maintained in RPMI 1640 (Thermo Fisher Scientific, #S31800–022) at 37 °C in a 5% CO2 atmosphere and routinely tested for Mycoplasma contamination by PCR using the primers 5′-[…] and 5′-[…]. To test the toxicity of compounds, 5000 cells were added to 96-well plates with a final volume of 80 μL centrifuged at 400g for 2 min and incubated with 150 ng/mL of phorbol myristate acetate (Merck, #P8139) for 48 h. The medium was replaced, and after 24 h, the compounds were added and tested at decreasing concentrations starting from 200 μM (10 μL/well). After 72 h of incubation, 10 μL of PrestoBlue Cell Viability Reagent (Thermo Fisher Scientific, #A13262) was added per well. After adding the reagent, the cells were incubated for 2 h at 37 °C in a 5% CO2 atmosphere, and fluorescence readings were performed using the SpectraMax M3 reader (excitation at 560 nm and emission at 590 nm).

LbDHODH = LbDHODH (Leishmania braziliensis, UniProt E9AI53); experiment: biochemical; conditions: for IC50: LbDHODH
Chain of LbDHODH (E9AI53 entry or part of it): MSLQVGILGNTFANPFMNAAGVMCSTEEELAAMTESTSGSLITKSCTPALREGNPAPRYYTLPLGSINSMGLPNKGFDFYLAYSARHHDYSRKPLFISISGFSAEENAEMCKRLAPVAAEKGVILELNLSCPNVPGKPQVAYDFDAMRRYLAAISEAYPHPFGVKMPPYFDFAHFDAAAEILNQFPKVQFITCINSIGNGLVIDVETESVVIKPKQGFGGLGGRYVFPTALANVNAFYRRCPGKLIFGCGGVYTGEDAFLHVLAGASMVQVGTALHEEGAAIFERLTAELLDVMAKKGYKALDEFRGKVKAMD
Method: To assess the ability of compounds 2a–2i to inhibit LbDHODH via covalent bond formation with Cys^131, we initially screened them at a concentration of 100 μM under two conditions: with and without a 4-h preincubation with the enzyme.
The experiments were performed in a 96-well microplate reader (SpectraMax Plus 384, Molecular Devices, USA), containing the […] of the buffer 60 mM DCIP, 50 mM Tris pH 8.15, 150 mM KCl, 0.1% Triton X-100, 50 μM DHO and 10 μM of LbDHODH at 165 nM. The reaction was monitored every 3 s at 610 nm over a period of 60 s, in triplicate, for the control and each concentration of the inhibitor. All assays were performed without incubation (0h) and with 4-h preincubation of the inhibitor with LbDHODH, using 5% DMSO (v/v) as control. […]. […] The resulting kobs values were plotted as a function of inhibitor concentration, and the data in the initial linear region was fit to determine the slope, which is kinact/KI. All regressions were performed with GraphPad Prism 9.

[3] = Parallel artificial membrane permeability assay (PAMPA); conditions: PBS pH 7.4/7.4, 6h at room temperature; for recovery at 6 h, 10 µM: PAMPA; for recovery at 6 h, 10 µM / Avg Log Pe (cm/sec) / Avg Pe: 10µM; for Pe (nm/sec) n=1: replicate n=1; for Pe (nm/sec) n=1 / Pe (nm/sec) n=2: 10µM (5% DMSO), LC-MS/MS; for Pe (nm/sec) n=2: replicate n=2
Method: Solutions of the compounds were prepared in duplicate by diluting the stock solutions (10 mM) in phosphate buffered saline (PBS) pH 7.4 at a final concentration of 10 μM (5% DMSO). The solutions diluted in PBS pH 7.4 were then added to the donor portion of the plate (300 μL/well), while in the acceptor portion PBS pH 7.4 (200 μL/well) was added. The two portions of the plate were then coupled, and the system was incubated for 6 h at room temperature. Samples of the initial donor solution (T0) were collected at the beginning (T0) and stored at 5 °C. The final concentrations of compounds in the donor, acceptor and T0 wells were quantified by LC-MS/MS.

[4] = mouse liver microsomes; for Raw data: analyte peak area, T=0: 0 min; for Raw data: analyte peak area, T=0 / Raw data: analyte peak area, T=5 / Raw data: analyte peak area, T=10 / Raw data: analyte peak area, T=20 / Raw data: analyte peak area, T=30 / Raw data: analyte peak area, T=60: raw LC-MS area; for Raw data: analyte peak area, T=10: 10 min; for Raw data: analyte peak area, T=30: 30 min; for Raw data: analyte peak area, T=60: 60 min
in vitro = conditions: liver microsomes, pH 7.4, % Remaining, 1 µM; for remaining at 10 min, 1 µM: T=10 min; for remaining at 1 h, 1 µM: T=60 min, 60 min
[5] = read-out: Single dose (0h) % activity
[6] = read-out: Single dose (4h) % activity
[7] = THP-1 cell line, 72 h, max 200 μM, read-out: CC50
[8] = LbDHODH remaining activity, compound 100 μM, 4-h preincubation, read-out: single dose (4 h) % activity
[9] = LbDHODH remaining activity, compound 100 μM, without preincubation, read-out: single dose (0 h) % activity
[10] = pH 7.4, % Recovery n=1, replicate n=1
[11] = pH 7.4, % Recovery n=2, replicate n=2
[12] = pH 7.4, Avg % Recovery, average of n=2
[13] = mouse, n=1, mouse liver microsomes, n=1
[14] = mouse, n=2, mouse liver microsomes, n=2

T1 sequence (Q02127 whole entry): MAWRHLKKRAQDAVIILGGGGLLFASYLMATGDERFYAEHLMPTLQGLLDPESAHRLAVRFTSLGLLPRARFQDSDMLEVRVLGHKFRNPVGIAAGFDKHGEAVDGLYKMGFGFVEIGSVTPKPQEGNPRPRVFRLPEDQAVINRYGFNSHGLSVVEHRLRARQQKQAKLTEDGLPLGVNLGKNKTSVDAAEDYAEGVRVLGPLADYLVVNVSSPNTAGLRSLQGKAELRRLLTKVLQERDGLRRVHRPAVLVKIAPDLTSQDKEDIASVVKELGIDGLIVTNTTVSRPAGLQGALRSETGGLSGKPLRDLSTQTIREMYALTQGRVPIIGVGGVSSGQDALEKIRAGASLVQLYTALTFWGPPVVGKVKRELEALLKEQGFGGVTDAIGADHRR

## C/C(O)=C(\C#N)C(=O)Nc1ccc(C(F)(F)F)cc1 [Teriflunomide, reference compound]
HsDHODH; HsDHODH remaining activity, 100 μM, 4-h incubation, read-out: Single dose (4h) % activity
  activity at 100 µM: 0.39 ± 0.04%
HsDHODH; HsDHODH remaining activity, 100 μM, without incubation, read-out: Single dose (0h) % activity
  activity at 100 µM: 0.6 ± 0.1%

## C[C@@H]1[C@H](O)[C@@H](C)/C=C/C=C/C=C/C=C/C=C/C=C/C=C/[C@H](O[C@@H]2O[C@H](C)[C@@H](O)[C@H](N)[C@@H]2O)C[C@@H]2O[C@](O)(C[C@@H](O)C[C@@H](O)[C@H](O)CC[C@@H](O)C[C@@H](O)CC(=O)O[C@H]1C)C[C@H](O)[C@H]2C(=O)O [Amp. B, Amphotericin B, reference compound]
[1]; read-out: EC50
  EC50: 0.4 ± 0.3 µM
[2]
  CC50 at 72 h: 6 ± 2 µM

## O=C1NC(=O)C(CC=Cc2ccccc2)C(=O)N1 [3i, 5-Cinnamylpyrimidine-2,4,6(1H,3H,5H)-trione]
HsDHODH; [5]
  activity at 100 µM: 102 ± 12%
HsDHODH; [6]
  activity at 100 µM: 98 ± 10%
[1]
  EC50: > 200 µM
LbDHODH; [5]
  activity at 100 µM: 103 ± 3%
LbDHODH; [6]
  activity at 100 µM: 21 ± 7%
[2]; [7]
  CC50 at 72 h: 193 ± 67 µM

## O=C1NC(=O)C(Cc2ccc(-c3ccccc3)cc2)C(=O)N1 [3f, 5-([1,1′-Biphenyl]-4-ylmethyl)pyrimidine-2,4,6(1H,3H,5H)-trione]
HsDHODH; [5]
  activity at 100 µM: 93 ± 11%
HsDHODH; [6]
  activity at 100 µM: 102 ± 10%
[1]
  EC50: > 200 µM
LbDHODH; [8]
  activity at 100 µM: 34 ± 6%
LbDHODH; LbDHODH remaining activity, compound 100 μM, without preincubation, 100 µM
  single dose (0 h) % activity: 82.6 ±0.2%
LbDHODH; [9]
  activity at 100 µM: 83 ± 0.2%
[2]; [7]
  CC50 at 72 h: > 200 µM

## NC(=O)N1c2ccccc2C=Cc2ccccc21 [Carbamazepine]
[3]; [10]
  recovery at 6 h, 10 µM: 100%
[3]; [11]
  recovery at 6 h, 10 µM: 92.5%
[3]; [12]
  recovery at 6 h, 10 µM: 96.3%
[3]; average of n=2
  Avg Log Pe (cm/sec): -5.1 cm/sec
  Avg Pe: 7.83 ×10⁻⁶ cm/s
[3]
  Pe (nm/sec) n=1: 80.3 nm/s
  Pe (nm/sec) n=2: 76.4 nm/s

## O=C(O)c1cc(=O)[nH]c(=O)[nH]1 [Orotate, orotate]
LbDHODH; IC50 4 h, 4-h preincubation
  IC50: 27 ± 1 µM
LbDHODH; [8]
  activity at 100 µM: 27 ± 2%
LbDHODH; [9]
  activity at 100 µM: 35 ± 4%
LbDHODH; without preincubation, read-out: IC50 0 h
  IC50: 57 ± 2 µM

## CC(C)NCC(O)COc1cccc2ccccc12 (stereo not shown) [Propranolol]
[4]; replicate 1 (left block)
  Raw data: analyte peak area, T=0: 97333
  Raw data: analyte peak area, T=10: 45227
  Raw data: analyte peak area, T=30: 21377
  Raw data: analyte peak area, T=60: 15713
[4]; replicate 2 (right block)
  Raw data: analyte peak area, T=0: 94436
  Raw data: analyte peak area, T=10: 43475
  Raw data: analyte peak area, T=30: 25558
  Raw data: analyte peak area, T=60: 15931
[4]; 1 µM, 5 min, n=1
  % Remaining, T=5 min, n=1: 58.1%
[4]; 1 µM, 20 min, n=1
  % Remaining, T=20 min, n=1: 31.9%
[4]; 5 min, replicate 1 (left block)
  Raw data: analyte peak area, T=5: 56345
[4]; 5 min, replicate 2 (right block)
  Raw data: analyte peak area, T=5: 55807
[4]; 20 min, replicate 1 (left block)
  Raw data: analyte peak area, T=20: 29264
[4]; 20 min, replicate 2 (right block)
  Raw data: analyte peak area, T=20: 29449
[3]; [10]
  recovery at 6 h, 10 µM: 85.7%
[3]; [11]
  recovery at 6 h, 10 µM: 82.4%
[3]; [12]
  recovery at 6 h, 10 µM: 84%
[3]; average of n=2
  Avg Log Pe (cm/sec): -5.2 cm/sec
  Avg Pe: 6.15 ×10⁻⁶ cm/s
[3]
  Pe (nm/sec) n=1: 53.6 nm/s
  Pe (nm/sec) n=2: 69.4 nm/s
In vitro; male, CD1, mouse, T=5 min, n=2, mouse liver microsomes, 5 min, n=2
  remaining at 5 min, 1 μM: 52.5%
In vitro; [13]
  remaining at 10 min, 1 µM: 46.8%
  remaining at 1 h, 1 µM: 16%
In vitro; [14]
  remaining at 10 min, 1 µM: 43.5%
  remaining at 1 h, 1 µM: 15.5%
In vitro; mouse, T=20 min, n=2, mouse liver microsomes, 20 min, n=2
  remaining at 20 min, 1 µM: 31.2%
In vitro; mouse, T=30 min, n=1, mouse liver microsomes, 30 min, n=1
  remaining at 0.5 h, 1 µM: 22.7%

## COc1cc(CC2C(=O)NC(=O)NC2=O)ccc1O [3c, 5-(4-Hydroxy-3-methoxybenzyl)pyrimidine-2,4,6(1H,3H,5H)-trione]
HsDHODH; [5]
  activity at 100 µM: 87 ± 10%
HsDHODH; [6]
  activity at 100 µM: 79 ± 8%
[1]
  EC50: > 200 µM
LbDHODH; IC50 0 h, without preincubation
  IC50: > 100 µM
LbDHODH; IC50 4 h, 4-h preincubation
  IC50: > 100 µM
LbDHODH; [5]
  activity at 100 µM: 98 ± 7%
LbDHODH; [6]
  activity at 100 µM: 60 ± 10%
[2]; [7]
  CC50 at 72 h: > 200 µM

## O=C1NC(=O)C(CCCc2ccccc2)C(=O)N1 [3ii, 5-(3-Phenylpropyl)pyrimidine-2,4,6(1H,3H,5H)-trione]
HsDHODH; [5]
  activity at 100 µM: 99 ± 11%
HsDHODH; [6]
  activity at 100 µM: 96 ± 9%
[1]
  EC50: 23 ± 6 µM
LbDHODH; [8]
  activity at 100 µM: 21 ± 7%
LbDHODH; [9]
  activity at 100 µM: 98 ± 5%
[2]; [7]
  CC50 at 72 h: > 200 µM

## NS(=O)(=O)c1cc(C(=O)O)c(NCc2ccco2)cc1Cl [Furosemide]
[3]; [10]
  recovery at 6 h, 10 µM: 89.7%
[3]; [11]
  recovery at 6 h, 10 µM: 91.4%
[3]; [12]
  recovery at 6 h, 10 µM: 90.6%
[3]; average of n=2
  Avg Pe: 4.97e-05 ×10⁻⁶ cm/s
[3]
  Pe (nm/sec) n=1: 0.000533 nm/s
  Pe (nm/sec) n=2: 0.000461 nm/s
